This passage reports IC50 and IC90 results from ChEMBL document CHEMBL4483862, “Open-source discovery of chemical leads for next-generation chemoprotective antimalarials” (2018).

The test relates to Plasmodium berghei. The test is described as follows: Luciferase/luciferin-expressing antifolate-resistant parasites were used to infect a culture of HepG2 cells that were pre-incubated with compounds. Infected hepatocytes emit light due to the luciferase reaction. Assay results are presented as the percent inhibition of light emission compared to control. […]. The format is functional. To be noted: sporozoite; for IC90: read-out: LUCIFERASE INFECTION ASSAY - IC90.

Setting [1] is: read-out: LUCIFERASE INFECTION ASSAY - IC50.

Usually IC50 stands for the concentration at which inhibition is half-maximal. One may read the IC90 as the concentration at which the effect reaches the 90% level.

Turning to `Cc1ccc(Nc2ncccc2C(=O)Nc2nc3ccccc3[nH]2)c(C)c1`, the IC90 stood at 7.9 µM. In addition, under “HEPG2TOX_HILL_SLOPE 7.67, HEPG2TOX_R_SQUARED 0.775, PBLUC_HILL_SLOPE 5.03, PBLUC_R_SQUARED 0.402, read-out: LUCIFERASE INFECTION ASSAY - IC50”, the IC50 was 5.1 µM.

On to `COc1ccc(C(C)(C)C)cc1NC(=O)c1ccc(NC(=O)Nc2ccccc2)s1`, for which the IC90 turned out to be 5.68 µM. Further, the IC50 under setting [1] stood at 5.57 µM.

On to `CCc1cccc2c(C(=O)COC(=O)C3CCN(S(=O)(=O)c4ccc(Cl)c(C(F)(F)F)c4)CC3)c[nH]c12`, for which the 90% effect concentration (IC90) is > 10 µM. Moreover, for the setting “FFLUC_HILL_SLOPE 3.04, FFLUC_R_SQUARED 0.433, read-out: LUCIFERASE INFECTION ASSAY - IC50”, the IC50 is > 10 µM.

Regarding `Cn1c(N)c(Sc2ccccc2[N+](=O)[O-])c(=O)n(C)c1=O`, the IC90 was > 10 µM. Moreover, the IC50 under setting [1] is > 10 µM.

For the compound `CC1(c2cc(F)ccc2F)NC(=O)N(CC(=O)c2cn(CCC#N)c3ccccc23)C1=O` (configuration not stated), the IC90 was > 10 µM. The IC50 under setting [1] was > 10 µM.

Turning to `Nc1nnc(SCC(=O)N(Cc2ccccc2)c2nc(-c3ccc(Cl)cc3)cs2)[nH]1`, the IC90 is > 10 µM. In addition, under setting [1], the IC50 is > 10 µM.

Consider `CN1CCc2nc3sc(C(=O)Nc4ccc(Cl)cc4F)c(N)c3cc2C1`, for which the IC90 was > 8.44 µM. The IC50 under setting [1] was > 8.44 µM.

As for `Cc1ccc2nc(NC(=O)C3CCCCC3)c(C(=O)NC3CCCCC3)n2c1`, the IC90 is > 8.63 µM. Further, for the setting “HEPG2TOX_HILL_SLOPE 0.0875, HEPG2TOX_R_SQUARED 0.133, PBLUC_HILL_SLOPE 0.199, PBLUC_R_SQUARED 0.0366, read-out: LUCIFERASE INFECTION ASSAY - IC50”, the IC50 was > 8.63 µM.

Turning to `Cc1cc(C(=O)/C(C#N)=N/Nc2ccc(Cl)cc2)n(C(C)(C)C)n1`, the IC90 was 7.21 µM. Moreover, the concentration for half-maximal inhibition (IC50) (HEPG2TOX_HILL_SLOPE 0.671, HEPG2TOX_R_SQUARED 0.767, PBLUC_HILL_SLOPE 2.12, PBLUC_R_SQUARED 0.724, read-out: LUCIFERASE INFECTION ASSAY - IC50) was found to be 2.56 µM.

With `Cc1cc(C)cc(C(=O)N(C)CC(=O)N2CCCC2)c1`, the IC90 was > 10 µM. Also, the IC50 (FFLUC_HILL_SLOPE 0.201, FFLUC_R_SQUARED 0.0577, read-out: LUCIFERASE INFECTION ASSAY - IC50) is > 10 µM.

With `Cc1csc2sc(C(=O)N3CCOCC3)c(C)c12`, the IC90 was > 11.7 µM. In addition, the IC50 under setting [1] is > 11.7 µM.

On to `O=C(NC(c1ccccc1)C1CC1)C1=NN(c2ccccc2)C(=O)CN1` (configuration not stated), for which the IC90 is 9.85 µM. The IC50 (PBLUC_HILL_SLOPE 18.7, PBLUC_R_SQUARED 0.556, read-out: LUCIFERASE INFECTION ASSAY - IC50) is 8.76 µM.

For the compound `CC1N(C)c2ccc(/C=C/c3sc4ccccc4[n+]3C)cc2C1(C)C` (configuration not stated), the IC90 was found to be 4.5 µM. Moreover, the IC50 (HEPG2TOX_HILL_SLOPE 3.18, HEPG2TOX_R_SQUARED 0.945, PBLUC_HILL_SLOPE 1.61, PBLUC_R_SQUARED 0.672, read-out: LUCIFERASE INFECTION ASSAY - IC50) was 1.15 µM.

As for `O/N=C/c1ncc(C(F)(F)F)cc1Sc1ccc(Cl)cc1`, the IC90 is > 9.92 µM. Also, for the setting “FFLUC_HILL_SLOPE 8, FFLUC_R_SQUARED 0.0374, HEPG2TOX_HILL_SLOPE 8.44, HEPG2TOX_R_SQUARED 0.673, PBLUC_HILL_SLOPE 11.8, PBLUC_R_SQUARED 0.204, read-out: LUCIFERASE INFECTION ASSAY - IC50”, the IC50 stood at 9.28 µM.

Consider `COCCCN1C(=O)N(Cc2ccccc2)C(=O)C12CCN(CCC(C)c1ccc(C)o1)CC2` (configuration not stated), for which the IC90 is > 7.06 µM. For the same compound, for the setting “PBLUC_HILL_SLOPE 7.49, PBLUC_R_SQUARED 0.22, read-out: LUCIFERASE INFECTION ASSAY - IC50”, the IC50 turned out to be 6.36 µM.

For the compound `Cc1ccc(NC2c3ccccc3-c3ccccc32)cc1`, the IC90 was > 10 µM. Also, the IC50 (PBLUC_HILL_SLOPE 2, PBLUC_R_SQUARED 0.71, read-out: LUCIFERASE INFECTION ASSAY - IC50) was determined as 6.95 µM.

Regarding `O=C(c1[nH]c2ccccc2c1-c1ccccc1)N1CCOCC1`, the IC90 turned out to be 8.74 µM. The IC50 (HEPG2TOX_HILL_SLOPE 1.63, HEPG2TOX_R_SQUARED 0.942, PBLUC_HILL_SLOPE 2.32, PBLUC_R_SQUARED 0.78, read-out: LUCIFERASE INFECTION ASSAY - IC50) was 3.39 µM.

Regarding `CCOc1ccc(S(=O)(=O)Nc2ccccc2C(=O)Nc2nnc[nH]2)cc1`, the IC90 was > 10 µM. Also, under setting [1], the IC50 is > 10 µM.

Consider `O=C1Nc2ccc([N+](=O)[O-])cc2C12NNc1ccccc1O2` (configuration not stated), for which the IC90 is > 10 µM. In addition, the IC50 under setting [1] was > 10 µM.

For `COc1ccccc1-c1noc(CSc2nc3ccccc3c(=O)n2-c2ccc(C)cc2)n1`, the IC90 is > 10 µM. In addition, the IC50 under setting [1] is > 10 µM.

On to `CC(C)c1ccc(NC(=O)C2=COC3=NC(=O)N(Cc4cccc(C#N)c4)CCN23)cc1`, for which the IC90 was 1.27 µM. Also, the IC50 (HEPG2TOX_HILL_SLOPE 1.33, HEPG2TOX_R_SQUARED 0.794, PBLUC_HILL_SLOPE 15.4, PBLUC_R_SQUARED 0.591, read-out: LUCIFERASE INFECTION ASSAY - IC50) came out at 1.1 µM.

`COC(=O)c1cc(-c2ccc(C)cc2)nc2onc(C(C)C)c12`: the IC90 is > 10 µM. In addition, the IC50 under setting [1] is > 10 µM.

Take `NS(=O)(=O)c1ccc(CCNc2cc(-c3ccccc3)c3cc4c(cc3n2)OCCO4)cc1`: the IC90 was 6.08 µM. Further, the IC50 under setting [1] was determined as 3.43 µM.

On to `N#Cc1c(OCC(F)(F)F)ccc(Sc2ccc(C(F)(F)F)cn2)c1OCC(F)(F)F`, for which the IC90 was > 6.93 µM. Besides, under setting [1], the IC50 was found to be 5.5 µM.

On to `Nc1c(C(=O)Nc2nc3ccccc3s2)sc2ncccc12`, for which the IC90 worked out at 0.512 µM. In addition, the IC50 under setting [1] turned out to be 0.00465 µM.

As to `COc1cc2nc(-c3ccccc3)nc(N3CCN(c4ccncc4)CC3)c2cc1OC`, the 90% effect concentration (IC90) is > 10 µM. Moreover, the IC50 under setting [1] was > 10 µM.

Regarding `Cc1cc2oc(=O)cc(Cn3cnc4sc(C)c(-c5ccccc5)c4c3=O)c2cc1Cl`, the IC90 was > 10 µM. Further, for the setting “FFLUC_HILL_SLOPE 8.53, FFLUC_R_SQUARED 0.709, PBLUC_HILL_SLOPE 1.77, PBLUC_R_SQUARED 0.508, read-out: LUCIFERASE INFECTION ASSAY - IC50”, the IC50 was 4.81 µM.

`CN(C)c1nc2cc(C(=O)Nc3ccccc3OC(F)F)sc2n1-c1ccccc1`: the IC90 stood at 2.47 µM. Also, the IC50 (HEPG2TOX_HILL_SLOPE 0.955, HEPG2TOX_R_SQUARED 0.898, PBLUC_HILL_SLOPE 1.96, PBLUC_R_SQUARED 0.521, read-out: LUCIFERASE INFECTION ASSAY - IC50) stood at 0.803 µM.

With `O=C(Nc1cc([N+](=O)[O-])ccc1Cl)Nc1ccccc1-c1nc2ccccc2[nH]1`, the concentration for an effect of 90% (IC90) was > 10 µM. For the same compound, the IC50 under setting [1] is > 10 µM.

Take `COc1cc(-c2cnc3cnc(-c4ccc(N)nc4)cn23)ccc1O`: the IC90 came to 4.1 µM. Also, the IC50 (HEPG2TOX_HILL_SLOPE 2.67, HEPG2TOX_R_SQUARED 0.695, PBLUC_HILL_SLOPE 3.91, PBLUC_R_SQUARED 0.793, read-out: LUCIFERASE INFECTION ASSAY - IC50) was 2.33 µM.

In the case of `COc1ccc(S(=O)(=O)N2CCCCC2)cc1NC(=O)c1nn(CC(C)C)c(=O)c2ccccc12`, the IC90 came to 4.38 µM. Further, for the setting “FFLUC_HILL_SLOPE 27.6, FFLUC_R_SQUARED 0.604, PBLUC_HILL_SLOPE 11.9, PBLUC_R_SQUARED 0.273, read-out: LUCIFERASE INFECTION ASSAY - IC50”, the IC50 was 3.64 µM.

In the case of `Cc1cnc(C(=O)Nc2cc(C(F)(F)F)ccc2N2CCN(C)CC2)cn1`, the IC90 was > 10 µM. For the same compound, the IC50 (PBLUC_HILL_SLOPE 0.31, PBLUC_R_SQUARED 0.853, read-out: LUCIFERASE INFECTION ASSAY - IC50) is > 10 µM.

`CCOC(=O)c1c(C)[nH]c(C(=O)Nc2ccnn2C2CCCC2)c1C`: the 90% effect concentration (IC90) is 6.13 µM. Moreover, the IC50 under setting [1] was found to be 6.86 µM.

In the case of `COc1ccc(NC=C2C(=O)CC(c3cccs3)CC2=O)cc1` (configuration not stated), the IC90 was > 10.1 µM. For the same compound, the IC50 under setting [1] is > 10.1 µM.

On to `O=C(Nc1ccc2c(c1)OC1(CCCCC1)O2)c1ccc[nH]c1=O`, for which the IC90 is > 10 µM. In addition, under “FFLUC_HILL_SLOPE 3.32, FFLUC_R_SQUARED 0.581, PBLUC_HILL_SLOPE 0.537, PBLUC_R_SQUARED 0.823, read-out: LUCIFERASE INFECTION ASSAY - IC50”, the IC50 came out at 0.172 µM.

On to `C[C@@H]1OC(O[C@H]2C[C@@H](O)[C@]3(CO)[C@@H]4C(CC[C@]3(O)C2)[C@@]2(O)CC[C@H](C3=CC(=O)OC3)[C@@]2(C)C[C@H]4O)[C@H](O)[C@H](O)[C@H]1O` (some centres not stated), for which the IC90 turned out to be 0.179 µM. Besides, the IC50 (HEPG2TOX_HILL_SLOPE 1.56, HEPG2TOX_R_SQUARED 0.89, PBLUC_HILL_SLOPE 1.86, PBLUC_R_SQUARED 0.797, read-out: LUCIFERASE INFECTION ASSAY - IC50) was found to be 0.0548 µM.

Regarding `CCOc1cccc(C(=O)Nc2c(C)cc(Br)cc2C)c1`, the IC90 is > 9.48 µM. Further, the IC50 under setting [1] was > 9.48 µM.

In the case of `CC(=O)Nc1ccc(-c2ccnc3c2CC(C(=O)Nc2cccc(C(F)(F)F)c2)O3)cc1` (configuration not stated), the IC90 was > 7.48 µM. Under setting [1], the IC50 is 4.23 µM.

In the case of `Cc1cc(C(=O)COC(=O)c2ccccc2OCC(=O)Nc2cccc(C(F)(F)F)c2)c(C)n1CC1CCCO1` (configuration not stated), the IC90 was > 10 µM. The IC50 under setting [1] is > 10 µM.

For the compound `N#Cc1cc(C(=O)c2cc(F)ccc2OC(=O)C2(c3ccccc3)CC2)cn(Cc2ccccc2)c1=O`, the IC90 was > 10 µM. The IC50 under setting [1] is > 10 µM.

Consider `COc1cc(/C=C2\COC/C(=C\c3ccc(O)c(OC)c3)C2=O)ccc1O`, for which the IC90 is > 8.96 µM. Moreover, the IC50 (HEPG2TOX_HILL_SLOPE 3.66, HEPG2TOX_R_SQUARED 0.976, PBLUC_HILL_SLOPE 1.71, PBLUC_R_SQUARED 0.466, read-out: LUCIFERASE INFECTION ASSAY - IC50) was > 8.96 µM.
